Measurements: patent publication US20250381179A1, “CHROMAN-BASED COMPOUNDS FOR TREATING CANCER” (priority 2024, published 2025)

Assay: Phase 1 study: safety and tolerability (TEAEs, NCI CTCAE v5.0)
Experimental: The study employed an open-label, 3+3 design, with the option of adding backfill patients to each cohort cleared and deemed safe. […] Tumor responses were assessed every 2 cycles using RECIST v1.1 criteria. […] The study also involves an ongoing dose escalation study where participants receive 100 mg, 200 mg, 300 mg, 400 mg, and 600 mg once daily (QD) dose levels.
Safety was assessed through the analysis of the reported incidence of treatment-emergent AEs. Treatment-emergent AEs are those with an onset on or after the initiation of therapy and will be graded according to NCI CTCAE Version 5.0. Other safety endpoints, including laboratory results, vital signs, and ECG findings, were summarized for all patients in the Safety set.

[1] = Cohort 2/200 mg QD, patient 1, first listed event
[2] = Cohort 2/200 mg QD, patient 1, second listed event

O=C1CC[C@H](N2Cc3cc(N4CCN(CC5CCN(c6ccc([C@@H]7c8ccc(O)cc8OC[C@@H]7c7ccccc7)cc6F)CC5)CC4)ccc3C2=O)C(=O)N1 [compound (1-g), (S)-3-(5-(4-((1-(2-fluoro-4-((3S,4R)-7-hydroxy-3-phenylchroman-4-yl)phenyl)piperidin-4-yl)methyl)piperazin-1-yl)-1-oxoisoindolin-2-yl)piperidine-2,6-dione]
TEAE: Influenza Like Illness (600 mg QD (N = 4)): 0 n (%) | TEAE: Insomnia (600 mg QD (N = 4)): 0 n (%) | TEAE: Lower Respiratory Tract Congestion (600 mg QD (N = 4)): 0 n (%) | TEAE: Lymphocyte Count Decreased (600 mg QD (N = 4)): 0 n (%) | TEAE: Muscle Spasm (600 mg QD (N = 4)): 0 n (%) | TEAE: Muscular Weakness (600 mg QD (N = 4)): 0 n (%) | TEAE: Musculoskeletal Stiffness (600 mg QD (N = 4)): 0 n (%) | TEAE: Nail Disorder (600 mg QD (N = 4)): 0 n (%) | TEAE: Nasal Congestion (600 mg QD (N = 4)): 0 n (%) | TEAE: Nausea (600 mg QD (N = 4)): 0 n (%) | TEAE: Neutrophil Count Decreased (600 mg QD (N = 4)): 1 (25.0) n (%) | TEAE: Oedema Peripheral (600 mg QD (N = 4)): 0 n (%) | TEAE: Ophthalmic Migraine (600 mg QD (N = 4)): 0 n (%) | TEAE: Oral Pain (600 mg QD (N = 4)): 0 n (%) | TEAE: Pain In Extremity (600 mg QD (N = 4)): 0 n (%) | TEAE: Pharyngitis (600 mg QD (N = 4)): 0 n (%) | TEAE: Platelet Count Decreased (600 mg QD (N = 4)): 0 n (%) | TEAE: Pleural Effusion (600 mg QD (N = 4)): 0 n (%) | TEAE: Pneumonia (600 mg QD (N = 4)): 0 n (%) | TEAE: Productive Cough (600 mg QD (N = 4)): 0 n (%) | TEAE: Rash Maculo-Papular (600 mg QD (N = 4)): 0 n (%) | TEAE: Rhinitis Allergic (600 mg QD (N = 4)): 0 n (%) | TEAE: Rib Fracture (600 mg QD (N = 4)): 0 n (%) | TEAE: Seizure (600 mg QD (N = 4)): 0 n (%) | TEAE: Sepsis (600 mg QD (N = 4)): 0 n (%) | TEAE: Tremor (600 mg QD (N = 4)): 0 n (%) | TEAE: Upper Respiratory Tract Infection (600 mg QD (N = 4)): 0 n (%) | TEAE: Urinary Tract Infection (600 mg QD (N = 4)): 0 n (%) | TEAE: Vaginal Haemorrhage (600 mg QD (N = 4)): 0 n (%) | TEAE: Vomiting (600 mg QD (N = 4)): 0 n (%) | related TEAE: Alopecia (600 mg QD (N = 4)): 0 n (%) | related TEAE: Arthralgia (600 mg QD (N = 4)): 0 n (%) | related TEAE: Constipation (600 mg QD (N = 4)): 1 (25.0) n (%) | related TEAE: Diarrhea (600 mg QD (N = 4)): 0 n (%) | related TEAE: Dysgeusia (600 mg QD (N = 4)): 0 n (%) | related TEAE: Eructation (600 mg QD (N = 4)): 0 n (%) | related TEAE: Fatigue (600 mg QD (N = 4)): 0 n (%) | related TEAE: Flatulence (600 mg QD (N = 4)): 0 n (%) | related TEAE: Hot Flush (600 mg QD (N = 4)): 1 (25.0) n (%) | related TEAE: Hyperhidrosis (600 mg QD (N = 4)): 1 (25.0) n (%) | related TEAE: Nail Disorder (600 mg QD (N = 4)): 0 n (%) | related TEAE: Nausea (600 mg QD (N = 4)): 0 n (%) | related TEAE: Neutrophil Count Decreased (600 mg QD (N = 4)): 1 (25.0) n (%) | related TEAE: Platelet Count Decreased (600 mg QD (N = 4)): 0 n (%) | related TEAE: Tremor (600 mg QD (N = 4)): 0 n (%) | related TEAE: Vomiting (600 mg QD (N = 4)): 0 n (%) | correlation of TEAE incidence with dose level (100-600 mg QD): did not seem to correlate with increasing dose levels | dose limiting toxicities (100-600 mg QD, 37 patients): No dose limiting toxicities were observed | participants with TEAEs that led to dose interruption (Cohort 1 (100 mg QD)): 3 participants | CTCAE Grade of TEAE leading to dose interruption: Fall (Cohort 1/100 mg QD, patient 1): 2 | Duration of TEAE leading to dose interruption: Fall (Cohort 1/100 mg QD, patient 1): 1 days | Related to Compound (1-g), TEAE leading to dose interruption: Fall (Cohort 1/100 mg QD, patient 1): No | CTCAE Grade of TEAE leading to dose interruption: Fatigue (Cohort 1/100 mg QD, patient 2): 3 | Related to Compound (1-g), TEAE leading to dose interruption: Fatigue (Cohort 1/100 mg QD, patient 2): No | CTCAE Grade of TEAE leading to dose interruption: Confusional state (Cohort 1/100 mg QD, patient 3): 2 | Duration of TEAE leading to dose interruption: Confusional state (Cohort 1/100 mg QD, patient 3): 2 days | Related to Compound (1-g), TEAE leading to dose interruption: Confusional state (Cohort 1/100 mg QD, patient 3): No | participants with TEAEs that led to dose interruption (Cohort 2 (200 mg QD)): 4 participants | CTCAE Grade of TEAE leading to dose interruption: Anaemia [1]: 2 | Duration of TEAE leading to dose interruption: Anaemia [1]: 28 days | Related to Compound (1-g), TEAE leading to dose interruption: Anaemia [1]: No | CTCAE Grade of TEAE leading to dose interruption: Anaemia [2]: 3 | Related to Compound (1-g), TEAE leading to dose interruption: Anaemia [2]: No | CTCAE Grade of TEAE leading to dose interruption: Fatigue (Cohort 2/200 mg QD, patient 2): 2 | CTCAE Grade of TEAE leading to dose interruption: Muscular weakness (Cohort 2/200 mg QD, patient 2): 2 | Related to Compound (1-g), TEAE leading to dose interruption: Fatigue (Cohort 2/200 mg QD, patient 2): No | Related to Compound (1-g), TEAE leading to dose interruption: Muscular weakness (Cohort 2/200 mg QD, patient 2): No | CTCAE Grade of TEAE leading to dose interruption: Seizure (Cohort 2/200 mg QD, patient 3): 3 | CTCAE Grade of TEAE leading to dose interruption: Sepsis (Cohort 2/200 mg QD, patient 3): 3 | Duration of TEAE leading to dose interruption: Seizure (Cohort 2/200 mg QD, patient 3): 20 days | Duration of TEAE leading to dose interruption: Sepsis (Cohort 2/200 mg QD, patient 3): 20 days | Related to Compound (1-g), TEAE leading to dose interruption: Seizure (Cohort 2/200 mg QD, patient 3): No | Related to Compound (1-g), TEAE leading to dose interruption: Sepsis (Cohort 2/200 mg QD, patient 3): No | CTCAE Grade of TEAE leading to dose interruption: Pain in extremity (Cohort 2/200 mg QD, patient 4, first listed event): 1
